Experimental data from ChEMBL document CHEMBL1201862, “PubChem BioAssay data set” (2004).
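Step 1: Grow cells in 96-well plates. Step 2: Expose to compound for 48 hours at 5 concentrations. Step 3: Interpolate endpoints linearly; if unreached, use highest concentration. GI50: concentration for 50% inhibition of growth.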 Calls of active or inactive are those of the source. Rule as the data show it: active = GI50 up to about 1.1 µM and inactive = higher. *1 amine or outer side, *2 acyl side, *3 side chain or, on linkers, in order; H or OH if unused. Where a SMILES comes first, the peptide text is derived from it. Bridges are numbered along the chain shown (N, C = ends). [ ]: non-standard residue; d: D form. The star is where a group is joined. ξ: configuration not given here. ξOrn(4,5-diOH) = O=C(C(CC(O)C(O)N[*:3])N[*:1])[*:2]; ξhTyr(βξ-OH,γξ-OH) = NC(C(=O)O)C(O)C(O)c1ccc(O)cc1; ξPro(3ξ-OH,4ξ-Me) = CC1CNC(C(=O)O)C1O; X55 = CCCCC/C=C/C/C=C\CCCCCCCC(=O)*; Hyp = O=C(O)[CH]1C[CH](O)CN1

Key:
Assay in all cases: inhibition of tumour cell growth, NCI panel, 48 h
[1] = tested on: ACHN
[2] = tested on: NCI/ADR-RES
[3] = tested on: SR
[4] = tested on: U-251
[5] = tested on: MDA-N
[6] = tested on: IGROV-1
[7] = tested on: OVCAR-8
[8] = tested on: A498
[9] = tested on: SF-295
[10] = tested on: SNB-19
[11] = tested on: CAKI-1
[12] = tested on: KM12
[13] = tested on: T47D
[14] = tested on: OVCAR-3
[15] = tested on: BT-549
[16] = tested on: NCI-H460
[17] = tested on: A549
[18] = tested on: Malme-3M
[19] = tested on: OVCAR-4

Structure (SMILES)	GI50 [1]	GI50 [2]	GI50 [3]	GI50 [4]	GI50 [5]	GI50 [6]	GI50 [7]	GI50 [8]	GI50 [9]	GI50 [10]	GI50 [11]	GI50 [12]	GI50 [13]	GI50 [14]	GI50 [15]	GI50 [16]	GI50 [17]	GI50 [18]	GI50 [19]
OCC(Cn1cncn1)(c1ccc(F)cc1F)n1cncn1 (stereo not drawn)	> 100 µM (inactive)	> 100 µM (inactive)	> 100 µM (inactive)	> 100 µM (inactive)	> 100 µM (inactive)	> 100 µM (inactive)	> 100 µM (inactive)	38.5 µM (inactive)	> 100 µM (inactive)	> 100 µM (inactive)	> 100 µM (inactive)	> 100 µM (inactive)	> 100 µM (inactive)	> 100 µM (inactive)	> 100 µM (inactive)	> 100 µM (inactive)	> 100 µM (inactive)	> 100 µM (inactive)	
CCCCC/C=C/C/C=C\CCCCCCCC(=O)NC1CC(O)C(O)NC(=O)C2C(O)C(C)CN2C(=O)C(C(C)O)NC(=O)C(C(O)C(O)c2ccc(O)cc2)NC(=O)C2CC(O)CN2C(=O)C(C(C)O)NC1=O (stereo not drawn) (X55-[ξOrn(4,5-diOH)]T[Hyp][ξhTyr(βξ-OH,γξ-OH)]T[ξPro(3ξ-OH,4ξ-Me)]; lactam 1-C; configuration not given here)	> 100 µM (inactive)	> 100 µM (inactive)	> 100 µM (inactive)	> 100 µM (inactive)	> 100 µM (inactive)	> 100 µM (inactive)	> 100 µM (inactive)		> 100 µM (inactive)	> 100 µM (inactive)	> 100 µM (inactive)	> 100 µM (inactive)	> 100 µM (inactive)	> 100 µM (inactive)	> 100 µM (inactive)	> 100 µM (inactive)	> 100 µM (inactive)		> 100 µM (inactive)
CN1CC2=C(N=C(S)NC2c2ccccc2)/C(=C/c2ccccc2)C1 (stereo not drawn)	52.6 µM (inactive)	> 100 µM (inactive)	30.4 µM (inactive)	54.5 µM (inactive)	35.7 µM (inactive)	24.5 µM (inactive)	> 10 µM (inactive)	89.7 µM (inactive)	17.9 µM (inactive)	> 100 µM (inactive)	> 100 µM (inactive)	25.6 µM (inactive)	44.8 µM (inactive)	99.8 µM (inactive)	> 100 µM (inactive)	32.1 µM (inactive)	30.3 µM (inactive)	30.1 µM (inactive)	
CCOC(=O)c1ccc(Nc2nc3cc(C(F)(F)F)ccc3nc2C(=O)OCC)cc1	42 µM (inactive)	> 100 µM (inactive)	> 100 µM (inactive)	19.7 µM (inactive)	> 100 µM (inactive)	> 100 µM (inactive)	51.6 µM (inactive)	36.6 µM (inactive)	38.3 µM (inactive)	22.6 µM (inactive)	23.5 µM (inactive)	> 100 µM (inactive)	69.3 µM (inactive)	58.6 µM (inactive)	72.6 µM (inactive)	74.3 µM (inactive)	39.6 µM (inactive)		
COc1cccc(C2c3cc4c(cc3OC(C)(N3CCCC3)C2C)OCO4)c1OC (stereo not drawn)	3.83 µM (inactive)	7.46 µM (inactive)	4.31 µM (inactive)	5.25 µM (inactive)	10.6 µM (inactive)	5.82 µM (inactive)	10.8 µM (inactive)		9.1 µM (inactive)	22.8 µM (inactive)	5.06 µM (inactive)	6.78 µM (inactive)	4.24 µM (inactive)	5.07 µM (inactive)	6.67 µM (inactive)	11.7 µM (inactive)	5.58 µM (inactive)	18.8 µM (inactive)	5.18 µM (inactive)
O=C(NC(=S)Nc1ccc([N+](=O)[O-])cc1)c1ccc2c(c1)Sc1ccccc1O2	49.9 µM (inactive)	> 100 µM (inactive)	> 100 µM (inactive)	37 µM (inactive)	> 100 µM (inactive)	98.2 µM (inactive)	> 100 µM (inactive)	> 100 µM (inactive)	89.1 µM (inactive)	53.3 µM (inactive)	> 100 µM (inactive)	> 100 µM (inactive)	24.6 µM (inactive)	> 100 µM (inactive)	> 100 µM (inactive)	> 100 µM (inactive)	> 100 µM (inactive)	65.8 µM (inactive)	
CC(=O)O[C@H]1C[C@]2(C)C(CCC3O[C@@]32C)[C@@]2(CC(c3ccoc3)OC2O)[C@@H]1C (stereo partly drawn)	> 100 µM (inactive)	> 100 µM (inactive)	39.2 µM (inactive)	> 100 µM (inactive)	> 100 µM (inactive)	> 100 µM (inactive)	> 100 µM (inactive)	> 100 µM (inactive)	> 100 µM (inactive)	> 100 µM (inactive)	> 100 µM (inactive)	78.3 µM (inactive)	39.3 µM (inactive)	60.7 µM (inactive)	40 µM (inactive)	60.8 µM (inactive)	> 100 µM (inactive)		41 µM (inactive)
Cc1cn(C(C)OCCN2C(=O)c3ccccc3C2=O)c(=O)[nH]c1=O (stereo not drawn)	> 100 µM (inactive)	> 100 µM (inactive)	> 100 µM (inactive)	> 100 µM (inactive)	> 100 µM (inactive)	> 100 µM (inactive)	> 100 µM (inactive)	> 100 µM (inactive)	> 100 µM (inactive)	> 100 µM (inactive)	> 100 µM (inactive)	> 100 µM (inactive)	> 100 µM (inactive)	> 100 µM (inactive)	> 100 µM (inactive)	> 100 µM (inactive)	> 100 µM (inactive)		> 100 µM (inactive)
CC1(C)OC2COC3([C@@H]4OC(C)(C)O[C@@H]4CO)OC(C)(C)OC3C2O1 (stereo partly drawn)	> 100 µM (inactive)	> 100 µM (inactive)	> 100 µM (inactive)	> 100 µM (inactive)	> 100 µM (inactive)	> 100 µM (inactive)	> 100 µM (inactive)	> 100 µM (inactive)	> 100 µM (inactive)	> 100 µM (inactive)	> 100 µM (inactive)	> 100 µM (inactive)	> 100 µM (inactive)	> 100 µM (inactive)	> 100 µM (inactive)	> 100 µM (inactive)	> 100 µM (inactive)		> 100 µM (inactive)
O=C(c1ccccc1)C(C(=O)c1ccccc1)c1nc2ccccc2sc1=O	9.84 µM (inactive)	10.5 µM (inactive)		5.73 µM (inactive)	> 25 µM (inactive)	8.11 µM (inactive)	9.29 µM (inactive)	> 25 µM (inactive)	10.1 µM (inactive)	18.5 µM (inactive)	13.1 µM (inactive)	12.6 µM (inactive)	> 25 µM (inactive)	> 25 µM (inactive)	5.92 µM (inactive)	11.4 µM (inactive)	8.91 µM (inactive)	9.53 µM (inactive)	9.71 µM (inactive)
Cc1ccc2c(/C=C/c3ccc(N(C)C)cc3)ccc(C(C)C)cc1-2	> 100 µM (inactive)	> 100 µM (inactive)	27.9 µM (inactive)	> 100 µM (inactive)	> 100 µM (inactive)	> 100 µM (inactive)	> 100 µM (inactive)	83.4 µM (inactive)	> 100 µM (inactive)		> 100 µM (inactive)	> 100 µM (inactive)	36.9 µM (inactive)	> 100 µM (inactive)	> 100 µM (inactive)		> 100 µM (inactive)	> 100 µM (inactive)	
C[C@H](C1CC(C)(O)C(C)(O)C(O)O1)[C@H]1CC[C@H]2[C@@H]3[C@@H]4O[C@@H]4[C@@]4(O)CC=CC(=O)[C@]4(C)[C@H]3CC[C@]12C (stereo partly drawn)	45.4 µM (inactive)	> 50 µM (inactive)		> 50 µM (inactive)	> 50 µM (inactive)	> 50 µM (inactive)	30.4 µM (inactive)	22.4 µM (inactive)	> 50 µM (inactive)	> 50 µM (inactive)	> 50 µM (inactive)	> 50 µM (inactive)	> 50 µM (inactive)	> 50 µM (inactive)	> 50 µM (inactive)	> 50 µM (inactive)	> 50 µM (inactive)	2.67 µM (inactive)	> 50 µM (inactive)
Nc1ccn(C2OC(CO)C(O)C2(F)F)c(=O)n1 (stereo not drawn)		0.0755 µM (active)	0.158 µM (active)	0.162 µM (active)	0.237 µM (active)	0.301 µM (active)	0.051 µM (active)	0.186 µM (active)	0.254 µM (active)	0.129 µM (active)	0.108 µM (active)	39.4 µM (inactive)	0.387 µM (active)	1.88 µM (inactive)	0.33 µM (active)	0.0504 µM (active)	0.055 µM (active)	0.63 µM (active)	
O=C1COc2cc(N3CCN(c4cccc(C(F)(F)F)c4)CC3)ccc2N1	> 100 µM (inactive)	> 100 µM (inactive)	> 100 µM (inactive)	> 100 µM (inactive)	> 100 µM (inactive)	> 100 µM (inactive)	> 100 µM (inactive)		> 100 µM (inactive)	> 100 µM (inactive)	> 100 µM (inactive)	> 100 µM (inactive)	> 100 µM (inactive)	> 100 µM (inactive)	> 100 µM (inactive)	> 100 µM (inactive)	> 100 µM (inactive)		> 100 µM (inactive)
CCOC(=O)[C@@H]1ON2OC(OC3CCCC3(c3ccccc3)c3ccccc3)C(OC(C)=O)[C@H]3OC(=O)[C@@H]1C32 (stereo partly drawn)	29.9 µM (inactive)	> 100 µM (inactive)	> 100 µM (inactive)	42.8 µM (inactive)	> 100 µM (inactive)	> 100 µM (inactive)	> 100 µM (inactive)	> 100 µM (inactive)	31.6 µM (inactive)	> 100 µM (inactive)	> 100 µM (inactive)	> 100 µM (inactive)	46.6 µM (inactive)	30.5 µM (inactive)	> 100 µM (inactive)	> 100 µM (inactive)	47.2 µM (inactive)		
